PubChem BioAssay (NCI)
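These data come from cells grown in 96-well plates and exposed to compound for 48 hours at five concentrations. GI50 = concentration required for 50% inhibition of growth. At the TGI there is no net growth.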

Experiments:
Assay in all cases: growth of human tumour cells (NCI), 48 h
[1] = test system: HCT-116 colon
[2] = test system: HCT-15 colon
[3] = test system: NCI/ADR-RES ovarian
[4] = test system: SK-MEL-28 melanoma
[5] = test system: PC-3 prostate
[6] = test system: HCC-2998 colon
[7] = test system: HS 578T breast
[8] = test system: OVCAR-8 ovarian
[9] = test system: U251 CNS
[10] = test system: T-47D breast

NC1=Nc2cc(OCCCN3Cc4ccccc4C3)c(OCC3CC3)cc2C12CCCC2
GI50 [1]: 1.61 µM
TGI [1]: 3.49 µM
GI50 [2]: 2.1 µM
TGI [2]: 6.51 µM
GI50 [3]: 2.91 µM
TGI [3]: 12 µM
GI50 [4]: 1.84 µM
TGI [4]: 3.46 µM
GI50 [5]: 2.66 µM
TGI [5]: 12.7 µM
GI50 [6]: 1.62 µM
TGI [6]: 3.08 µM
GI50 [7]: 2.83 µM
TGI [7]: 17.7 µM
GI50 [8]: 3.71 µM
TGI [8]: 13.9 µM
GI50 [9]: 1.8 µM
TGI [9]: 3.88 µM
GI50 [10]: 1.82 µM
TGI [10]: 4.54 µM

Cc1c(N=Cc2ccc(N(CCC#N)CCC#N)cc2)c(=O)n(-c2ccccc2)n1C
TGI [1]: > 100 µM
TGI [2]: > 100 µM
TGI [3]: > 100 µM
TGI [4]: > 100 µM
TGI [5]: > 100 µM
TGI [6]: > 100 µM
TGI [7]: > 100 µM
TGI [8]: > 100 µM
TGI [9]: > 100 µM
TGI [10]: > 100 µM

Cn1c(=O)c(Oc2ccccc2)cc2cnc(NC3CCOCC3)nc21
GI50 [1]: > 25 µM
TGI [1]: > 25 µM
GI50 [2]: > 25 µM
TGI [2]: > 25 µM
GI50 [3]: > 25 µM
TGI [3]: > 25 µM
GI50 [4]: > 25 µM
TGI [4]: > 25 µM
GI50 [5]: > 25 µM
TGI [5]: > 25 µM
GI50 [6]: > 25 µM
TGI [6]: > 25 µM
GI50 [7]: > 25 µM
TGI [7]: > 25 µM
GI50 [8]: > 25 µM
TGI [8]: > 25 µM
GI50 [9]: > 25 µM
TGI [9]: > 25 µM
GI50 [10]: > 25 µM
TGI [10]: > 25 µM

C=C1C[C@@]2(C)C(CC[C@]3(C)C2CC=C2C4CC(C)(C)C[C@@H](OC(=O)/C(C)=C\C)[C@]4(C(=O)O)CC[C@]23C)C(C)(C)C1=O (stereo not given in full)
GI50 [1]: 1.81 µM
TGI [1]: 3.91 µM
GI50 [2]: 2.23 µM
TGI [2]: 7.88 µM
GI50 [3]: 3.45 µM
TGI [3]: 33.4 µM
GI50 [4]: 2.32 µM
TGI [4]: 5.44 µM
GI50 [5]: 1.99 µM
TGI [5]: 5.94 µM
GI50 [6]: 2.02 µM
TGI [6]: 4.52 µM
GI50 [7]: 5.21 µM
TGI [7]: 34.4 µM
GI50 [8]: 3.75 µM
TGI [8]: 27.5 µM
GI50 [9]: 2.46 µM
TGI [9]: 6.83 µM
GI50 [10]: 3.25 µM
TGI [10]: 15.2 µM

O=C(CC1C=CCS1(=O)=O)NCc1ccccc1 (stereo not given)
TGI [1]: > 100 µM
TGI [2]: > 100 µM
TGI [3]: > 100 µM
TGI [4]: > 100 µM
TGI [5]: > 100 µM
TGI [6]: > 100 µM
TGI [7]: > 100 µM
TGI [8]: > 100 µM
TGI [9]: > 100 µM
TGI [10]: > 100 µM

Cc1cc(N(CCCl)CCCl)ccc1/C=N/NC(=O)Cc1cc(=O)oc2cc(O)ccc12
TGI [1]: 40.5 µM
TGI [2]: > 100 µM
TGI [3]: > 100 µM
TGI [4]: 41.9 µM
TGI [5]: 27.5 µM
TGI [6]: 72 µM
TGI [7]: 56.3 µM
TGI [8]: > 100 µM
TGI [9]: 43.4 µM
TGI [10]: 56.9 µM

COc1ccc2c(c1)C1(C(=O)N2)C(C#N)=C(c2ccccc2)Nc2c1c(-c1ccccc1)nn2-c1ccccc1 (stereo not given)
GI50 [1]: 1.66 µM
TGI [1]: 3.02 µM
GI50 [2]: 11 µM
TGI [2]: 26.8 µM
GI50 [3]: 31.9 µM
TGI [3]: > 100 µM
GI50 [4]: 2.21 µM
TGI [4]: 5.4 µM
GI50 [5]: 1.98 µM
TGI [5]: 3.67 µM
GI50 [6]: 3.51 µM
TGI [6]: 12.5 µM
GI50 [7]: 4.1 µM
TGI [7]: 19.3 µM
GI50 [8]: 3.54 µM
TGI [8]: 12.7 µM
GI50 [9]: 2.8 µM
TGI [9]: 7.12 µM
GI50 [10]: 2.94 µM
TGI [10]: 12.5 µM

COc1ccc2c(c1)/C(=C/c1cc(OC)c(OC)c(OC)c1)C(=O)N2C
GI50 [1]: 2.56 µM
TGI [1]: 13.3 µM
GI50 [2]: 2.12 µM
TGI [2]: > 35.6 µM
GI50 [3]: 3.37 µM
TGI [3]: > 39.7 µM
GI50 [4]: 3.58 µM
TGI [4]: 22.5 µM
GI50 [5]: 2.92 µM
TGI [5]: > 100 µM
GI50 [6]: 9.39 µM
TGI [6]: > 56.1 µM
GI50 [7]: 1.43 µM
TGI [7]: 4.61 µM
GI50 [8]: 4.21 µM
TGI [8]: > 74.8 µM
GI50 [9]: 1.94 µM
TGI [9]: 4.83 µM
GI50 [10]: 2.59 µM
TGI [10]: 6.45 µM

N#Cc1c(N)nc(N2CCOCC2)c(C#N)c1-c1ccccc1Cl
GI50 [1]: 74.7 µM
TGI [1]: > 100 µM
GI50 [2]: 41.4 µM
TGI [2]: > 100 µM
GI50 [3]: 40.2 µM
TGI [3]: > 100 µM
GI50 [4]: 33.6 µM
TGI [4]: > 100 µM
GI50 [5]: 22.6 µM
TGI [5]: > 100 µM
GI50 [6]: 49.8 µM
TGI [6]: > 100 µM
GI50 [7]: 23.6 µM
TGI [7]: > 100 µM
GI50 [8]: 42 µM
TGI [8]: > 100 µM
GI50 [9]: 50 µM
TGI [9]: > 100 µM
GI50 [10]: 21.2 µM
TGI [10]: > 100 µM

COc1ccc2c(c1)/C(=N/OC(C)=O)c1c-2c(=O)[nH]c2ccccc12
GI50 [1]: 3.35 µM
TGI [1]: 12.4 µM
GI50 [2]: 16.1 µM
TGI [2]: 38.1 µM
GI50 [3]: 2.83 µM
TGI [3]: 17.9 µM
GI50 [4]: 12.7 µM
TGI [4]: 26.6 µM
GI50 [5]: 11.8 µM
TGI [5]: 26 µM
GI50 [6]: 3.29 µM
TGI [6]: 13.5 µM
GI50 [7]: 8.88 µM
TGI [7]: 31.4 µM
GI50 [8]: 14.7 µM
TGI [8]: 31.8 µM
GI50 [9]: 15.5 µM
TGI [9]: 30.1 µM
GI50 [10]: 3 µM
TGI [10]: 27.2 µM

NC1CCC(N[C@@H]2C[C@H]2c2ccccc2)CC1 (stereo not given in full)
GI50 [1]: > 100 µM
TGI [1]: > 100 µM
GI50 [2]: 74.4 µM
TGI [2]: > 100 µM
GI50 [3]: > 100 µM
TGI [3]: > 100 µM
GI50 [4]: > 100 µM
TGI [4]: > 100 µM
GI50 [5]: 70.8 µM
TGI [5]: > 100 µM
GI50 [6]: > 100 µM
TGI [6]: > 100 µM
GI50 [7]: > 100 µM
TGI [7]: > 100 µM
GI50 [8]: > 100 µM
TGI [8]: > 100 µM
GI50 [9]: > 100 µM
TGI [9]: > 100 µM
GI50 [10]: > 100 µM
TGI [10]: > 100 µM
